Test results: patent US20150374672A1, “PRE-SELECTION OF SUBJECTS FOR THERAPEUTIC TREATMENT WITH AN HSP90 INHIBITORY COMPOUND BASED ON CHEMOSENSITIVE STATUS” (Synta Pharmaceuticals Corp., priority 2014, published 2015)
Blank lines part the entries; values can stand above or below the compound they belong to.

Key:
[1] = Safety of ganetespib across clinical trials (over 1,000 patients); assay type: in vivo, human
Description: Ganetespib has been evaluated in a broad range of cancer clinical trials including the GALAXY NSCLC program (GALAXY-1 and GALAXY-2) in combination with docetaxel chemotherapy, and as monotherapy in certain genetically-defined targeted patient populations. A favorable safety profile has been consistently observed across clinical trials, involving over 1,000 patients treated with ganetespib to date. […] In the clinical trials conducted to date, ganetespib has shown promising activity both in combination with chemotherapy and as a monotherapy.

[2] = system: advanced solid tumor malignancies; assay: Phase 1 dose-escalation, pharmacokinetic study of ganetespib in combination with docetaxel; assay type: in vivo, human; settings: ganetespib schedule Days 1 and 15 of each cycle, preliminary data
Method: Patients were dosed once-weekly. Dosing was with 150 mg/m^2 ganetespib (days 1 and 15)+60 mg/m^2 docetaxel (Day 1). Initial ganetespib dosing regimen was Days 1 and 8; however, Day 8 was later changed to Day 15. Day 4 dosing with single agent ganetespib was added. The dose cycle was 2 weeks+1 week rest. The primary objective of this study was to determine the recommended doses for the combination of ganetespib and docetaxel in patients with advanced solid tumor malignancies. Secondary objectives were to define the DLTs associated with ganetespib in combination with docetaxel dosing, assess possible PK effects, and evaluate the safety, tolerability, and preliminary evidence of anti-tumor activity of the combination. A total of 27 patients were enrolled.

[3] = system: solid and hematologic cancers; assay: Preclinical studies of anti-cancer activity; settings: monotherapy and in combination with widely used anti-cancer agents
advanced NSCLC = assay: GALAXY-1 Phase 2b trial, ganetespib plus docetaxel vs. docetaxel alone: OS and PFS; assay type: in vivo, human
Description: The GALAXY-1 trial was initiated in patients with advanced NSCLC who received one prior treatment for advanced disease, i.e., a second-line treatment setting. GALAXY-1 compared treatment with docetaxel (D) alone, which is approved for second-line treatment, vs. treatment with ganetespib (G) plus docetaxel (D). The aims of the study were to:
The key GALAXY-1 patient populations comprised populations with (1) elevated LDH (eLDH), (2) KRAS mutations (mKRAS) and/or (3) time since diagnosis of cancer of 6 months or greater (chemosensitive). A rationale for selecting a population with elevated LDH is that LDH-A is a marker of HIF-1α activity, and HIF-1α is a Hsp90 client, and drives invasiveness and metastasis. A rationale for selecting a population with KRAS mutation is that RAS signaling kinases are Hsp90 clients, and there is a medical need. A rationale for selecting a population in which the time since diagnosis of cancer is 6 months or greater (chemosensitive population) is that key cell cycle checkpoint/DNA repair kinases are Hsp90 clients. Additionally, key mitochondrial apoptosis pathway proteins are Hsp90 clients.
(§1) Patients in both arms of GALAXY-1 received a standard regimen of docetaxel 75 mg/m^2 on day 1 of a 21-day treatment cycle. Patients in the combination arm also received ganetespib 150 mg/m^2 on days 1 and 15. Treatment continued until disease progression or until treatment intolerance. To ensure balance of prognostic factors between the two arms, patients were stratified by ECOG performance status (these scales and criteria are used by doctors and researchers to assess how a patient's disease is progressing, assess how the disease affects the daily living abilities of the patient, and determine appropriate treatment and prognosis), baseline lactate dehydrogenase (LDH) level, smoking status, and time since diagnosis of advanced disease.
To ensure the specified number of eLDH and mKRAS patients were included, a total of 385 patients were enrolled in GALAXY-1.
Hazard ratios were calculated with Cox proportional hazards model. • Unadjusted: univariate analysis • Adjusted: pre-specified analysis adjusting for multiple prognostic variables such as gender, smoking status, LDH, ECOG performance status, interval since diagnosis of advanced disease, age, total baseline target lesion size, and geographic region.
This was a randomized, multicenter, parallel group study. Patients in both arms were treated with docetaxel per standard practice until disease progression or intolerability. Patients on both arms were treated until intolerability or disease progression per RECIST.
Key eligibility criteria were Stage IIIB/IV NSCLC; ECOG 0,1; one prior therapy in advanced setting; measurable disease by RECIST; documented disease progression; clinically stable CNS metastases; available tumor tissues; and adequate organ function.
Patients were randomized in a 1:1 ratio to receive either ganetespib in combination with docetaxel or docetaxel alone.
The experimental arm was dosed with ganetespib in combination with docetaxel 75 mg/m^2. Ganetespib (150 mg/m^2) and docetaxel (75 mg/m^2) were administered on Day 1 of a 3-week cycle. Ganetespib (150 mg/m^2) was administered again on Day 15 of each 3-week cycle. Docetaxel 75 mg/m^2 was administered on Day 1 of a 3-week treatment cycle. 385 patients were enrolled. A total of 381 patients received at least one dose of study drug.

[4] = GALAXY-1 safety profile (adverse events) in adenocarcinoma patients
Method: as §1

[5] = Adenocarcinoma population, N = 253
[6] = Chemosensitive population, N = 177

recommended Phase 2 dose [2]: 150 mg/m^2
Structure (SMILES): CC(C)c1cc(-c2nnc(O)n2-c2ccc3c(ccn3C)c2)c(O)cc1O [Ganetespib]
most common adverse event ([1]; clinical trials): transient, mild or moderate diarrhea
toxicities observed across clinical trials ([1]; over 1,000 patients treated): not shown the serious liver or common ocular toxicities
anti-cancer activity in preclinical studies [3]: potent anti-cancer activity

Structure (SMILES): CC(=O)O[C@@]12CO[C@@H]1C[C@H](O)[C@@]1(C)C(=O)[C@H](O)C3=C(C)[C@@H](OC(=O)[C@H](O)[C@@H](NC(=O)OC(C)(C)C)c4ccccc4)C[C@@](O)([C@@H](OC(=O)c4ccccc4)[C@H]21)C3(C)C [D, docetaxel]
Median OS (advanced NSCLC; [5]): 8.4 months
Median PFS (advanced NSCLC; [5]): 3.2 months
Median OS (advanced NSCLC; [6]): 7.4 months
Median PFS (advanced NSCLC; [6]): 3.4 months
Median OS (advanced NSCLC; eLDH population, N = 87): 5.1 months
Median PFS (advanced NSCLC; eLDH population, N = 87): 2.7 months
Median OS (advanced NSCLC; mKRAS population, N = 89): 6.4 months
Median PFS (advanced NSCLC; mKRAS population, N = 89): 3.0 months
recommended Phase 2 dose [2]: 75 mg/m^2
proportion of patients with AEs leading to death ([4]; adenocarcinoma patients): 12%
diarrhea, all grades ([4]; human, in vivo): 16%
fatigue, all grades ([4]; human, in vivo): 24%
grade 3 or 4 anemia ([4]; human, in vivo): 2%
grade 3 or 4 fatigue ([4]; human, in vivo): 4%
grade 3 or 4 febrile neutropenia ([4]; human, in vivo): 4%
grade 3 or 4 neutropenia ([4]; human, in vivo): 42%
incidence of grade 3 or 4 diarrhea ([4]; human, in vivo): 0%
neutropenia, all grades ([4]; human, in vivo): 45%
proportion of patients with AEs leading to treatment discontinuation ([4]; human, in vivo): 6%
